The source of these data is ChEMBL document CHEMBL5465560, “Selectivity Literature for EUbOPEN Chemogenomic Library” (2024).

Structures are written as SMILES.

Test [1] concerns the target T1, Serine/threonine-protein kinase 3 (Homo sapiens) (UniProt Q13188).
T1 sequence (whole entry): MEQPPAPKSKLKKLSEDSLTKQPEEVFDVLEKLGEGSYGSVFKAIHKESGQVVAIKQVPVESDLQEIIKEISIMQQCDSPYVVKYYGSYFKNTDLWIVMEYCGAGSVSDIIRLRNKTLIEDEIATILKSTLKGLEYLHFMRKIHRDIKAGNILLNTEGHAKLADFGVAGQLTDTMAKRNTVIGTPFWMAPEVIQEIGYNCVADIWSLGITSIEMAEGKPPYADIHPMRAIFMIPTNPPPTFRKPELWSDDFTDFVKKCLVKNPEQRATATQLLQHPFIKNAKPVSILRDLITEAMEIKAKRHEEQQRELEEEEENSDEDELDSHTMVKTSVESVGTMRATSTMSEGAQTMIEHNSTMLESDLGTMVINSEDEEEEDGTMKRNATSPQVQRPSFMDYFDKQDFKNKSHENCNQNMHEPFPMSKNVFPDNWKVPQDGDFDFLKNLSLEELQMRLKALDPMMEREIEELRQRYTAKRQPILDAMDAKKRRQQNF
The test is described as follows: Selectivity interaction (Kinase panel (DSF assay)) EUB0001489b STK3. (DSF heats the sample and reads unfolding from a dye or from intrinsic fluorescence.)

The target in test [2] is Serine/threonine-protein kinase MARK1 (Homo sapiens) (UniProt Q9P0L2). The settings on record: at 10 µM.
Chain of Serine/threonine-protein kinase MARK1 (Homo sapiens) (Q9P0L2 whole entry, looked up): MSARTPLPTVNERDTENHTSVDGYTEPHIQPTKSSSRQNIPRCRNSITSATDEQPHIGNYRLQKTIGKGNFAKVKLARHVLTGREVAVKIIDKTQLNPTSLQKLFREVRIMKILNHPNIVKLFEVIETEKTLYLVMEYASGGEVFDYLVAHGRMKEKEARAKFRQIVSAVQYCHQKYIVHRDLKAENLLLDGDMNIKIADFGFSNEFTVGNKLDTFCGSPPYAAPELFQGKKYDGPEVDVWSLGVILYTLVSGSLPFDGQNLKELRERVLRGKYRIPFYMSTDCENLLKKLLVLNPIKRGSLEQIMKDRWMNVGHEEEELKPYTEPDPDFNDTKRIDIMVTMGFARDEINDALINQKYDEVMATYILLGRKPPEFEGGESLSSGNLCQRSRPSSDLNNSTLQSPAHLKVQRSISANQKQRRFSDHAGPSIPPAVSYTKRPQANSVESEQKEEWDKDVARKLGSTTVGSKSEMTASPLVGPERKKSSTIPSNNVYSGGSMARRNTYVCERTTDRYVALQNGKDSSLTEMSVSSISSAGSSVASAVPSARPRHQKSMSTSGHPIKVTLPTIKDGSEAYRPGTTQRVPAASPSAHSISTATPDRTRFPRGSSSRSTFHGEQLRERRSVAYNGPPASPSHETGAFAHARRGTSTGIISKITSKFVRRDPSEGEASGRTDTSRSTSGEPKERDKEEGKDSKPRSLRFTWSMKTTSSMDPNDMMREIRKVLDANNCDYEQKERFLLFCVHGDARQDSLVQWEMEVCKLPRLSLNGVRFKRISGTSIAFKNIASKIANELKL
Test [3] addresses Ribosomal protein S6 kinase alpha-2 (Homo sapiens) (UniProt Q15349). Description: Selectivity interaction (ActivX KiNativ screen (ex vivo kinase selectivity in human PBMCs)) EUB0001619a RPS6KA2. The class given is cell-based. The settings on record: PBMC, at 1 µM.
Test [4] concerns the target Voltage-dependent L-type calcium channel subunit alpha-1S (Homo sapiens) (UniProt Q13698). Description: Selectivity interaction (Eurofins CEREP Diversity Profile (receptors and ion channels)) EUB0000279b CACNA1S. The settings on record: at 10 µM.
Test [5] concerns the target T2, MAP/microtubule affinity-regulating kinase 4 (Homo sapiens) (UniProt Q96L34).
T2 sequence (whole entry): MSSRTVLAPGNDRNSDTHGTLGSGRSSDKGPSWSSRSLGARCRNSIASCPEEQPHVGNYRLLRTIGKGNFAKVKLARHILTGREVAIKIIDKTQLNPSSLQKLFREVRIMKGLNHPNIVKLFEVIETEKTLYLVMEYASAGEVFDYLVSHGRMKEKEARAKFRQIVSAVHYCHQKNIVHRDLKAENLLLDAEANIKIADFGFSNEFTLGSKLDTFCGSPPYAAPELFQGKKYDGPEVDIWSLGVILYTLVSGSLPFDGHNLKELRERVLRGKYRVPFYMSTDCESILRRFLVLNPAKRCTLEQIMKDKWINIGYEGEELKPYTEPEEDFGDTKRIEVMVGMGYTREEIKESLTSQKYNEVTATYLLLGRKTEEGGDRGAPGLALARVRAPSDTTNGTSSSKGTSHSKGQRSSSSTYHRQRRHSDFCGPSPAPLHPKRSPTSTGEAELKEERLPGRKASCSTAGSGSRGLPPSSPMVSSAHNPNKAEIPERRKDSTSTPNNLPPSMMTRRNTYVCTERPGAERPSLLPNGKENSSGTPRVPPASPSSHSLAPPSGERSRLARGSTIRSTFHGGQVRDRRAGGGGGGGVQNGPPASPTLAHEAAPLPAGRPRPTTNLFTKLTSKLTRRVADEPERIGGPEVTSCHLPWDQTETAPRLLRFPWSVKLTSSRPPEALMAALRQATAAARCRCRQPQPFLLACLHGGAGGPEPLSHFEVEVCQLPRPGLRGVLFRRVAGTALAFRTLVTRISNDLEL
The test is described as follows: Selectivity interaction (ActivX KiNativ screen (kinase selectivity in THP-1 cell lysates)) EUB0000639a MARK4. The class given is subcellular. The note with it: lysate, at 1 µM.

Test [6] deals with Histone-lysine N-methyltransferase, H3 lysine-79 specific (Homo sapiens, UniProt Q8TEK3). The settings on record: at 1 µM.
Test [7] deals with T3, Serine/threonine-protein kinase D2 (Homo sapiens) (UniProt Q9BZL6).
T3 sequence (whole entry): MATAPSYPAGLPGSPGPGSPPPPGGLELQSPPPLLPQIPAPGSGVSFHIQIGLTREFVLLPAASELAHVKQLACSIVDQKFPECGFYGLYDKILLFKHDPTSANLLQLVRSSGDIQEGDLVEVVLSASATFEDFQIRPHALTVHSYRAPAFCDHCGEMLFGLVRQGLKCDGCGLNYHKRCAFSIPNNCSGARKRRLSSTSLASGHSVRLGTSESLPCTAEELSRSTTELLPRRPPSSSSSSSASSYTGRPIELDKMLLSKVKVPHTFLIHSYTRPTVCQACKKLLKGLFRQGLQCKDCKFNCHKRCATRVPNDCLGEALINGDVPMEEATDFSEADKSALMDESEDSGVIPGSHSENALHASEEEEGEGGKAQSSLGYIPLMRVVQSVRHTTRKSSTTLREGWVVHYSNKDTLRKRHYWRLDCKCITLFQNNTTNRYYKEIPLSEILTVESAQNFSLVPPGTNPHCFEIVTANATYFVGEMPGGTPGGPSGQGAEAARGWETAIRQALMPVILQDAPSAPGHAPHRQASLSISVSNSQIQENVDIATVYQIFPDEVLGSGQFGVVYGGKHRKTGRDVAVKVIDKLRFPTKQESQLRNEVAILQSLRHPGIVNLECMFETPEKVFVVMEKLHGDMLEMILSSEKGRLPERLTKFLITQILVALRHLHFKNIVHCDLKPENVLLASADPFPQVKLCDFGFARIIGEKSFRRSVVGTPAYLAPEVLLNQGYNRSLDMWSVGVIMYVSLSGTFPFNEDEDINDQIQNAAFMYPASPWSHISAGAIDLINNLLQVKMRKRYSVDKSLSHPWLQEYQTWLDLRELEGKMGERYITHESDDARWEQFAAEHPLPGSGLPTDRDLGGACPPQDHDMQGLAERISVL
Description: Selectivity interaction (ProQinase) EUB0000171b PRKD2.

Test [8] deals with Calcium/calmodulin-dependent protein kinase type II subunit gamma (Homo sapiens) (UniProt Q13555). The test is described as follows: Selectivity interaction (KinomeScan (DiscoverX)) EUB0001049a CAMK2G. The note with it: at 1 µM.
Chain of Calcium/calmodulin-dependent protein kinase type II subunit gamma (Homo sapiens) (Q13555 whole entry): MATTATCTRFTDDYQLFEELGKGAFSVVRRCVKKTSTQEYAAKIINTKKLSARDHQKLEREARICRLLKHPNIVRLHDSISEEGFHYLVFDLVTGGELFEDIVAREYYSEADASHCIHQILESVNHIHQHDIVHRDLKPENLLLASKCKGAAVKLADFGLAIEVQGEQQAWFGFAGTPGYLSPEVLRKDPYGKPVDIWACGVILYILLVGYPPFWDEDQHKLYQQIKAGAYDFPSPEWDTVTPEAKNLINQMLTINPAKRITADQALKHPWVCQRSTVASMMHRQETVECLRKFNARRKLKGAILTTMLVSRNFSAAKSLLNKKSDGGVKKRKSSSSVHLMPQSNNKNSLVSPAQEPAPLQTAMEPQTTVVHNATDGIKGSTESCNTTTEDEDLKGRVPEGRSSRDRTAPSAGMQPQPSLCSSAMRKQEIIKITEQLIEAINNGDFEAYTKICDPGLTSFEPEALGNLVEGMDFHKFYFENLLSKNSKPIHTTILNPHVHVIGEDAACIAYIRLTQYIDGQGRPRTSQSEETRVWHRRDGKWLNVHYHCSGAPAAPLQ
The target in test [9] is Histone acetyltransferase p300 (Homo sapiens) (UniProt Q09472). Description: Selectivity interaction (Bromodomain panel (DSF asssay)) EUB0000270b EP300.
Test [10] has as its target Mitogen-activated protein kinase kinase kinase kinase 5 (Homo sapiens) (UniProt Q9Y4K4). The test is described as follows: Selectivity interaction (KinomeScan (DiscoverX)) EUB0000618a MAP4K5. The settings on record: at 10 µM.
In test [11] the target is Microtubule-associated serine/threonine-protein kinase 1 (Homo sapiens) (UniProt Q9Y2H9). Description: Selectivity interaction (KinomeScan (DiscoverX)) EUB0001079a MAST1. The note with it: at 1 µM.
Chain of Microtubule-associated serine/threonine-protein kinase 1 (Homo sapiens) (Q9Y2H9 whole entry, looked up): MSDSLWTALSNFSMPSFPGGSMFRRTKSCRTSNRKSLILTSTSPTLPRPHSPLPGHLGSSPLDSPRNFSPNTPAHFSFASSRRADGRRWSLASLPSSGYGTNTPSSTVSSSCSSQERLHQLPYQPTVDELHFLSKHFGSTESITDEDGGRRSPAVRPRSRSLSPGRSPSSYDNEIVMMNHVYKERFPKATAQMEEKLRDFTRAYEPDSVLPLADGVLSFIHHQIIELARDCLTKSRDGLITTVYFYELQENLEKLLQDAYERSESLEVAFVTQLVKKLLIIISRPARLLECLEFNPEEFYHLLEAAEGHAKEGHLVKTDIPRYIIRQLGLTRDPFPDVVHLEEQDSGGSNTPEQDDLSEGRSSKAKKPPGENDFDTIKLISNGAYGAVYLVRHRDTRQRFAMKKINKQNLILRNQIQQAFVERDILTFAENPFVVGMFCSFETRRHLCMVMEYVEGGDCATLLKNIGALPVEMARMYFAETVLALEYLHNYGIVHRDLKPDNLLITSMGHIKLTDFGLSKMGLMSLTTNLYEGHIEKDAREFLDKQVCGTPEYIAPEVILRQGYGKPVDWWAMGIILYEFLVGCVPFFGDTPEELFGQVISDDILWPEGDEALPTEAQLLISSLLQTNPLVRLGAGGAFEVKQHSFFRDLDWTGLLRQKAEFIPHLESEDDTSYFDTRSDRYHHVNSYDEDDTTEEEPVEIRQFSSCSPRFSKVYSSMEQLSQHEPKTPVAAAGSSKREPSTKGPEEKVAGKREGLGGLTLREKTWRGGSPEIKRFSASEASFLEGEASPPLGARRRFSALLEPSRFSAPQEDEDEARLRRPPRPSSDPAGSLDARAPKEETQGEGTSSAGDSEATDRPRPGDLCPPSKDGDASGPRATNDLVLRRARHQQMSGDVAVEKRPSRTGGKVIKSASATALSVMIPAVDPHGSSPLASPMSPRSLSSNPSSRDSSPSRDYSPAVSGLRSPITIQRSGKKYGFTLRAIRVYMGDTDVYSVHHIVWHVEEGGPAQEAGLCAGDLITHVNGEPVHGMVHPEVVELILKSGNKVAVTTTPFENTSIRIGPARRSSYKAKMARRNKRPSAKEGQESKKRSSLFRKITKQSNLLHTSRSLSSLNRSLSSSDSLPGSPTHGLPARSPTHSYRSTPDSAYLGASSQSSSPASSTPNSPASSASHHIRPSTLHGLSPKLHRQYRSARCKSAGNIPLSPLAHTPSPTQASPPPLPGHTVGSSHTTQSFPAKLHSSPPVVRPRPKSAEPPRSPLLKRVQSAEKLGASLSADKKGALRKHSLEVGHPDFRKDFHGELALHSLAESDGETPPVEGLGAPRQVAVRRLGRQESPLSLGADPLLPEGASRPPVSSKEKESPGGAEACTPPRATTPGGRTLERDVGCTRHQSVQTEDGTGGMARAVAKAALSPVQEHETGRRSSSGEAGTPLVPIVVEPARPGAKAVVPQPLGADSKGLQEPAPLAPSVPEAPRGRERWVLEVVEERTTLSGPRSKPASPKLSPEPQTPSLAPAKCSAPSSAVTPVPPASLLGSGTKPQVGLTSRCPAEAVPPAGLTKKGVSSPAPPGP
For test [12], the target named is Glycogen synthase kinase-3 alpha (Homo sapiens, UniProt P49840). Description: Selectivity interaction (Kinase panel (KiNativ target engagement assay in Jurkat cells)) EUB0001635a GSK3A. The class given is cell-based. The note with it: Selectivity number of off-targets 0.0, Selectivity number of targets 233.0, Source Knowledge https://www.sciencedirect.com/science/article/pii/S2451945619300674?via%3Dihub, at 1 µM.
Chain of Glycogen synthase kinase-3 alpha (P49840 2-483 limits assumed): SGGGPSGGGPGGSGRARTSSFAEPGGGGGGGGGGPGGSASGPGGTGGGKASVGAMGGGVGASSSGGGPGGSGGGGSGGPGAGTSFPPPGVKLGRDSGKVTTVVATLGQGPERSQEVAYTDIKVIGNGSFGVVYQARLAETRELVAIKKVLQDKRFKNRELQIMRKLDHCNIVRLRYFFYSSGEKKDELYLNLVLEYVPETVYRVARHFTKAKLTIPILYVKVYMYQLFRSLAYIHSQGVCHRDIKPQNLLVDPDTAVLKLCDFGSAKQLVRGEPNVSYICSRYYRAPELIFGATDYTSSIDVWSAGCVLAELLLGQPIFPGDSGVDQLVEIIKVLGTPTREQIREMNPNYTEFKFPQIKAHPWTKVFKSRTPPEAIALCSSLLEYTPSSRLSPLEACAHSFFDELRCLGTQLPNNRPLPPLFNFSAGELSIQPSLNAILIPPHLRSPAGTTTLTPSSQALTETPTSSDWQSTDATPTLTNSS

Chain of Mitogen-activated protein kinase kinase kinase kinase 5 (Homo sapiens) (Q9Y4K4 whole entry, looked up): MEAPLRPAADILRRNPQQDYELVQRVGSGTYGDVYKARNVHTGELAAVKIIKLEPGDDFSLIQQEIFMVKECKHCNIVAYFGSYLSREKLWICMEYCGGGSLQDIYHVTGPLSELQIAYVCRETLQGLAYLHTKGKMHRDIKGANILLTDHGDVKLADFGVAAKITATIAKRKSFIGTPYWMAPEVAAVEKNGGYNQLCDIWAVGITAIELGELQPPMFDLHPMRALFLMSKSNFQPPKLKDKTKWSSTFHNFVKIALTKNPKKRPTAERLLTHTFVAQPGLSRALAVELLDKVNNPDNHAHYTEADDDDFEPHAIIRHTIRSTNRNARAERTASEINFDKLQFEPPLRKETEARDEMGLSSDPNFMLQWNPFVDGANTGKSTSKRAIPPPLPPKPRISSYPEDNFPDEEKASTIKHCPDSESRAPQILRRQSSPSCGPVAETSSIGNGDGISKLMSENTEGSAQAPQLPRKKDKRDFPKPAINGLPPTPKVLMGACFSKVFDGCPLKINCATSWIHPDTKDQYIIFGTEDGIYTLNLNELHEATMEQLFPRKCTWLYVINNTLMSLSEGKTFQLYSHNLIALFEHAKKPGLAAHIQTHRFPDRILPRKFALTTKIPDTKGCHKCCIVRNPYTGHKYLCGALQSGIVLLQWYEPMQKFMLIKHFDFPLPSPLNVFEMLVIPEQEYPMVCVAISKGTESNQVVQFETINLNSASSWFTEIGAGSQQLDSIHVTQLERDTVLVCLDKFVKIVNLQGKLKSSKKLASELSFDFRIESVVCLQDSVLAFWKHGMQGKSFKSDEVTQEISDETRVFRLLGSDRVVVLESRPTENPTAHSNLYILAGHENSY
Chain of Ribosomal protein S6 kinase alpha-2 (Homo sapiens) (Q15349 whole entry): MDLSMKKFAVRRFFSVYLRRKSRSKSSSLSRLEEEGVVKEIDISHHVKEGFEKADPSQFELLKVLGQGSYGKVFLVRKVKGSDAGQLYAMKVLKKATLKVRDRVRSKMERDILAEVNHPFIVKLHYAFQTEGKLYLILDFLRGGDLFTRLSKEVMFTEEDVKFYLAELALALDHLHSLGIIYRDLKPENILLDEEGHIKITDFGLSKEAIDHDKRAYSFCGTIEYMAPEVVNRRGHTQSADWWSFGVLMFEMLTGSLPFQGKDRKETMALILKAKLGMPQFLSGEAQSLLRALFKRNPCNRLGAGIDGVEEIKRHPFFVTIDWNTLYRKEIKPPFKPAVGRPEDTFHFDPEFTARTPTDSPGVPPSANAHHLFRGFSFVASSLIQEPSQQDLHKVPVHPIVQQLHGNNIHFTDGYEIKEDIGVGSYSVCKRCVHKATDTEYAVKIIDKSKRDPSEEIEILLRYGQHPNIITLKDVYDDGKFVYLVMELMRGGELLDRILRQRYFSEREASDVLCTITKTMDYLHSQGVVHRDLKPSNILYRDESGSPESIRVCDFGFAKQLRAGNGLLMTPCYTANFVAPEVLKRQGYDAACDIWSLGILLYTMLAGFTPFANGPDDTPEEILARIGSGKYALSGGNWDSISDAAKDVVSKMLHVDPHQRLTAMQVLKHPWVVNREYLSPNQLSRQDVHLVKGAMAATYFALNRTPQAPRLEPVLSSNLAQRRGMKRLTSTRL

The molecule `CN1CCN(C(=O)c2ccc3cc2OCCOCCNc2ccn4ncc-3c4n2)CC1` returned a dTM in test [1] of 3.4 K.
For `COCC(=O)NC/C=C/c1ccc2ncnc(Nc3ccc(Oc4ccc(C)nc4)c(C)c3)c2c1` [CP-724714], in [2], the % of control is 100%.
As for `N#Cc1cccc(-c2c[nH]c3ncnc(N4CCOCC4)c23)c1`, the % of inhibition in test [3] is -3%.
Turning to `CC(=O)c1cc(-c2ccccc2OCC2CC2)c2ncccn12`, in test [4], the % of control amounted to 89%.
In the case of `CC[C@@H]1[C@H](F)C(=O)N[C@@H]1COc1nccc2cc(C(N)=O)c(OC)cc12` [ZIMLOVISERTIB], in [5], the % of inhibition came out at 17.1%.
The molecule `CNCCN1CCC(c2cc(CN(C)C(=O)c3cccc(Oc4ccccc4)c3)ccn2)CC1` showed a % activity in [6] of over 90%.
In the case of `C=CC(=O)Nc1cccc(C(=O)Nc2ccc(Nc3cc(-c4[nH]c(SC)nc4C)ccn3)cc2)c1`, the % of control in [7] (at 1 µM) worked out at 69%; in test [7] (at 5 µM) it was 43%.
For the molecule `COc1cc(Nc2nc(C)cc(-c3cnn4nc(OC)ccc34)n2)cc(C(F)(F)F)c1`, the % of control in test [8] was found to be 90%.
`Cc1cc(CN)cc(C)c1-c1ncn(C)c1-c1cncn1C`: in test [9], the dTM is -1.45 K.
`O[C@H]1CC[C@H](Nc2ncc3nc(Nc4c(F)cc(F)cc4F)n([C@H]4CCOC4)c3n2)CC1` registered a % of control in test [10] of 100%.
As for `Nc1cnc(N2CCc3cc(S(=O)(=O)Nc4c(F)cc(Cl)cc4F)cc(N4CCCC4=O)c32)nc1` [TP-020n], in [11], the % of control stood at 97%.
On to `C=CC(=O)Nc1ccc(C(=O)Nc2[nH]nc3c2CN(C(=O)N[C@H](CN(C)C)c2ccccc2)C3(C)C)cc1`, for which the % of engagement in test [12] is -9.5%.
